According to patent publication US6589962B1, “Alpha-hydroxy-gamma-[[(carbocyclic-or heterocyclic-substituted)amino]carbonyl]alkanamide derivatives and uses thereof” (priority 1999, dated 2003):

System: HIV-1 viral constructs Q60, K-60, and V-18
Assay: Cell spread assay (HIV-1 p24 accumulation in MT-4 T-lymphoid cells), mutant viral constructs
Assay type: cell-based
Conditions: one range stated for the three mutant viral constructs together; MT-4 cells, 4 days postinfection
Procedure: Inhibition of the spread of HIV in cell culture was measured according to Nunberg et al., J. Virol. […] In this assay, MT-4 T-lymphoid cells were infected with HIV-1 (wild-type, unless otherwise indicated) by using a predetermined inoculum, and cultures were incubated for 24 h. At this time, ≦1% of the cells were positive by indirect immunofluorescence. Cells were then extensively washed and distributed into 96-well culture dishes. Serial twofold dilutions of inhibitor were added to the wells, and cultures were continued for 3 additional days. At 4 days postinfection, 100% of the cells in control cultures were infected. HIV-1 p24 accumulation was directly correlated with virus spread. The cell culture inhibitory concentration was defined as the inhibitor concentration in nanomoles/liter which reduced the spread of infection by at least 95%, or CIC95.

CC(C)(C)NC(=O)[C@@H]1CN(Cc2cccnc2)CCN1C[C@@H](O)C[C@@H](Cc1ccccc1)C(=O)N[C@H]1c2ccccc2C[C@H]1O [indinavir, N-(2(R)-hydroxy-1(S)-indanyl)-2(R)-phenylmethyl-4-(S)-hydroxy-5-(1-(4-(3-pyridyl-methyl)-2(S)-N′-(t-butylcarboxamido)-piperazinyl))-pentaneamide]
CIC95 against the viral constructs Q60, K-60, and V-18: greater than 1000 nM
